Test results from patent US20250154141A1 (University of Florida Research Foundation, Incorporated, priority 2021, published 2025).
Where two headings read alike, the source gives them in different places.

Key:
MOLT-4 = assay: Cell viability assay (MTS) in MOLT-4 cells; format: cell-based; details: Homo sapiens, MOLT-4
Experimental: (§1) Acute lymphoblastic leukemia cells (MOLT-4 and RS4; 11) were incubated with increasing concentrations of Bcl-xL degraders for 48 h. Cell viability was measured by tetrazolium-based MTS assay.

RS4; 11 = assay: Cell viability assay (MTS) in RS4; 11 cells; format: cell-based; design: Anti-Cancer Activity IC50 (48 hr) RS4; 11: scale not given here; details: for IC50: Homo sapiens, RS4-11
Experimental: as §1

[1] = Table 2, 48 hr, MTS, read-out: Anti-Cancer Activity IC50 (48 hr) MOLT-4
[2] = Table 2, 48 hr, MTS, read-out: Anti-Cancer Activity IC50 (48 hr) RS4, 11
[3] = Table 4, 48 h, read-out: MOLT-4 48 h IC50
[4] = Table 4, 48 h, read-out: RS4 48 h IC50

SMILES	IC50 (MOLT-4; [1])	IC50 (RS4; 11; [2])	further results
Cc1ncsc1-c1ccc([C@H](C)NC(=O)[C@@H]2C[C@@H](O)CN2C(=O)[C@@H](NC(=O)CCCCCCC(=O)N2CCN(C[C@]3(C)CCC(c4ccc(Cl)cc4)=C(CN4CCN(c5ccc(C(=O)NS(=O)(=O)c6ccc(N[C@H](CCN7CCCOCC7)CSc7ccccc7)c([N+](=O)[O-])c6)cc5)CC4)C3)CC2)C(C)(C)C)cc1 [Compound 55, (2S,4R)-1-((S)-2-(8-(4-(((R)-6-((4-(4-(((4-(((R)-4-(1,4-oxazepan-4-yl)-1-(phenylthio)butan-2-yl)amino)-3-nitrophenyl)sulfonyl)carbamoyl)phenyl)piperazin-1-yl)methyl)-4′-chloro-4-methyl-2,3,4,5-tetrahydro-[1,1′-biphenyl]-4-yl)methyl)piperazin-1-yl)-8-oxooctanamido)-3,3-dimethylbutanoyl)-4-hydroxy-N—((S)-1-(4-(4-methylthiazol-5-yl)phenyl)ethyl)pyrrolidine-2-carboxamide]	< 20 nM	< 20 nM	IC50 (MOLT-4; [3]): 11 nM; IC50 (RS4; 11; [4]): 3.2 nM
Cc1ncsc1-c1ccc([C@H](C)NC(=O)[C@@H]2C[C@@H](O)CN2C(=O)[C@@H](NC(=O)CC2CCN(CC(=O)N3CCN(C[C@]4(C)CCC(c5ccc(Cl)cc5)=C(CN5CCN(c6ccc(C(=O)NS(=O)(=O)c7ccc(N[C@H](CCN8CCCOCC8)CSc8ccccc8)c(S(=O)(=O)C(F)(F)F)c7)cc6)CC5)C4)CC3)CC2)C(C)(C)C)cc1 [Compound 75]	20 to 100 nM	20 to 100 nM	
Cc1ncsc1-c1ccc([C@H](C)NC(=O)[C@@H]2C[C@@H](O)CN2C(=O)[C@@H](NC(=O)CCCCCCC(=O)N2CCN(C[C@]3(C)CCC(c4ccc(Cl)cc4)=C(CN4CCN(c5ccc(C(=O)NS(=O)(=O)c6ccc(N[C@H](CCN7CCCC(F)(F)C7)CSc7ccccc7)c(S(=O)(=O)C(F)(F)F)c6)cc5)CC4)C3)CC2)C(C)(C)C)cc1 [Compound 88]	500 to 10000 nM	500 to 10000 nM	
Cc1ncsc1-c1ccc([C@H](C)NC(=O)[C@@H]2C[C@@H](O)CN2C(=O)[C@@H](NC(=O)CCCCCCC(=O)N2CCN(CC3(C)CCC(c4ccc(Cl)cc4)=C(CN4CCN(c5ccc(C(=O)NS(=O)(=O)c6ccc(N[C@H](CCN(C)C7CCC7)CSc7ccccc7)c([N+](=O)[O-])c6)cc5)CC4)C3)CC2)C(C)(C)C)cc1 (stereo partly drawn) [Compound 36, (2S,4R)-1-((2S)-2-(8-(4-((4′-chloro-6-((4-(4-(((4-(((R)-4-(cyclobutyl(methyl)amino)-1-(phenylthio)butan-2-yl)amino)-3-nitrophenyl)sulfonyl)carbamoyl)phenyl)piperazin-1-yl)methyl)-4-methyl-2,3,4,5-tetrahydro-[1,1′-biphenyl]-4-yl)methyl)piperazin-1-yl)-8-oxooctanamido)-3,3-dimethylbutanoyl)-4-hydroxy-N—((S)-1-(4-(4-methylthiazol-5-yl)phenyl)ethyl)pyrrolidine-2-carboxamide]	20 to 100 nM		Anti-Cancer Activity IC50 (48 hr) RS4; 11 (RS4; 11; Table 2, 48 hr, MTS): ++ ++
Cc1ncsc1-c1ccc([C@H](C)NC(=O)[C@@H]2C[C@@H](O)CN2C(=O)[C@@H](NC(=O)CCCCCCC(=O)N2CCN(CC3(C)CCC(c4ccc(Cl)cc4)=C(CN4CCN(c5ccc(C(=O)NS(=O)(=O)c6ccc(N[C@H](CCO)CSc7ccccc7)c([N+](=O)[O-])c6)cc5)CC4)C3)CC2)C(C)(C)C)cc1 (stereo partly drawn) [Compound 49, (2S,4R)-1-((2S)-2-(8-(4-((4′-chloro-6-((4-(4-(((4-(((R)-4-hydroxy-1-(phenylthio)butan-2-yl)amino)-3-nitrophenyl)sulfonyl)carbamoyl)phenyl)piperazin-1-yl)methyl)-4-methyl-2,3,4,5-tetrahydro-[1,1′-biphenyl]-4-yl)methyl)piperazin-1-yl)-8-oxooctanamido)-3,3-dimethylbutanoyl)-4-hydroxy-N—((S)-1-(4-(4-methylthiazol-5-yl)phenyl)ethyl)pyrrolidine-2-carboxamide]	500 to 10000 nM	20 to 100 nM	
Cc1ncsc1-c1ccc([C@H](C)NC(=O)[C@@H]2C[C@@H](O)CN2C(=O)[C@@H](NC(=O)CN2CCC(CN3CCN(CC4(C)CCC(c5ccc(Cl)cc5)=C(CN5CCN(c6ccc(C(=O)NS(=O)(=O)c7ccc(N[C@H](CCN8CCOCC8)CSc8ccccc8)c(S(=O)(=O)C(F)(F)F)c7)cc6)CC5)C4)CC3)CC2)C(C)(C)C)cc1 (stereo partly drawn) [Compound 16, (2S,4R)-1-((2S)-2-(2-(4-((4-((4′-chloro-4-methyl-6-((4-(4-(((4-(((R)-4-morpholino-1-(phenylthio)butan-2-yl)amino)-3-((trifluoromethyl)sulfonyl)phenyl)sulfonyl)carbamoyl)phenyl)piperazin-1-yl)methyl)-2,3,4,5-tetrahydro-[1,1′-biphenyl]-4-yl)methyl)piperazin-1-yl)methyl)piperidin-1-yl)acetamido)-3,3-dimethylbutanoyl)-4-hydroxy-N—((S)-1-(4-(4-methylthiazol-5-yl)phenyl)ethyl)pyrrolidine-2-carboxamide]	< 20 nM	20 to 100 nM	IC50 (MOLT-4; Table 5, 48 h, read-out: MOLT-4 48 h IC50): 12.7 nM; IC50 (RS4; 11; Table 5, 48 h, read-out: RS4 48 h IC50): 42.8 nM
Cc1ncsc1-c1ccc([C@H](C)NC(=O)[C@@H]2C[C@@H](O)CN2C(=O)[C@@H](NC(=O)CCCCCCC(=O)N2CCN(CC3(C)CCC(c4ccc(Cl)cc4)=C(CN4CCN(c5ccc(C(=O)NS(=O)(=O)c6ccc(N[C@H](CCN(C)C7CC7)CSc7ccccc7)c([N+](=O)[O-])c6)cc5)CC4)C3)CC2)C(C)(C)C)cc1 (stereo partly drawn) [Compound 35, (2S,4R)-1-((2S)-2-(8-(4-((4′-chloro-6-((4-(4-(((4-(((R)-4-(cyclopropyl(methyl)amino)-1-(phenylthio)butan-2-yl)amino)-3-nitrophenyl)sulfonyl)carbamoyl)phenyl)piperazin-1-yl)methyl)-4-methyl-2,3,4,5-tetrahydro-[1,1′-biphenyl]-4-yl)methyl)piperazin-1-yl)-8-oxooctanamido)-3,3-dimethylbutanoyl)-4-hydroxy-N—((S)-1-(4-(4-methylthiazol-5-yl)phenyl)ethyl)pyrrolidine-2-carboxamide]	20 to 100 nM		Anti-Cancer Activity IC50 (48 hr) RS4; 11 (RS4; 11; Table 2, 48 hr, MTS): + ++
Cc1ncsc1-c1ccc([C@H](C)NC(=O)[C@@H]2C[C@@H](O)CN2C(=O)[C@@H](NC(=O)CCCCCCC(=O)N2CCN(C[C@]3(C)CCC(c4ccc(Cl)cc4)=C(CN4CCN(c5ccc(C(=O)NS(=O)(=O)c6ccc(N[C@H](CCN7CC8CCC7C8)CSc7ccccc7)c(S(=O)(=O)C(F)(F)F)c6)cc5)CC4)C3)CC2)C(C)(C)C)cc1 (stereo partly shown) [Compound 67]	< 20 nM	< 20 nM	

More lines, main results first:

IC50 (MOLT-4; [1])	IC50 (RS4; 11; [2])	SMILES	further results
20 to 100 nM	20 to 100 nM	Cc1ncsc1-c1ccc([C@H](C)NC(=O)[C@@H]2C[C@@H](O)CN2C(=O)[C@@H](NC(=O)CCCNC(=O)c2ccc(N3CCN(CCN(C)CC4(C)CCC(c5ccc(Cl)cc5)=C(CN5CCN(c6ccc(C(=O)NS(=O)(=O)c7ccc(N[C@H](CCN8CCOCC8)CSc8ccccc8)c(S(=O)(=O)C(F)(F)F)c7)cc6)CC5)C4)CC3)nc2)C(C)(C)C)cc1 (stereo partly shown) [Compound 8]	
20 to 100 nM	100 to 500 nM	Cc1ncsc1-c1ccc([C@H](C)NC(=O)[C@@H]2C[C@@H](O)CN2C(=O)[C@@H](NC(=O)CNC(=O)c2ccc(N3CCN(CC4(C)CCC(c5ccc(Cl)cc5)=C(CN5CCN(c6ccc(C(=O)NS(=O)(=O)c7ccc(N[C@H](CCN8CCOCC8)CSc8ccccc8)c(S(=O)(=O)C(F)(F)F)c7)cc6)CC5)C4)CC3)nc2)C(C)(C)C)cc1 (stereo partly shown) [Compound 1]	
100 to 500 nM	100 to 500 nM	Cc1ncsc1-c1ccc([C@H](C)NC(=O)[C@@H]2C[C@@H](O)CN2C(=O)[C@@H](NC(=O)CC2CCN(CC(=O)N3CCN(CC4(C)CCC(c5ccc(Cl)cc5)=C(CN5CCN(c6ccc(C(=O)NS(=O)(=O)c7ccc(N[C@H](CCN8CCOCC8)CSc8ccccc8)c(S(=O)(=O)C(F)(F)F)c7)cc6)CC5)C4)CC3)CC2)C(C)(C)C)cc1 (stereo partly shown) [Compound 27]	
< 20 nM	< 20 nM	Cc1ncsc1-c1ccc([C@H](C)NC(=O)[C@@H]2C[C@@H](O)CN2C(=O)[C@@H](NC(=O)CCCCCNC(=O)c2ccc(N3CCN(C[C@]4(C)CCC(c5ccc(Cl)cc5)=C(CN5CCN(c6ccc(C(=O)NS(=O)(=O)c7ccc(N[C@H](CCN8C[C@H]9C[C@@H]8CO9)CSc8ccccc8)c(S(=O)(=O)C(F)(F)F)c7)cc6)CC5)C4)CC3)nc2)C(C)(C)C)cc1 [Compound 72]	IC50 (MOLT-4; [3]): 4.4 nM; IC50 (RS4; 11; [4]): 7 nM
< 20 nM	< 20 nM	Cc1ncsc1-c1ccc([C@H](C)NC(=O)[C@@H]2C[C@@H](O)CN2C(=O)[C@@H](NC(=O)CCCCCNC(=O)c2ccc(CN3CCN(C[C@]4(C)CCC(c5ccc(Cl)cc5)=C(CN5CCN(c6ccc(C(=O)NS(=O)(=O)c7ccc(N[C@H](CCN8CCCOCC8)CSc8ccccc8)c(S(=O)(=O)C(F)(F)F)c7)cc6)CC5)C4)CC3)nc2)C(C)(C)C)cc1 [Compound 80]	
< 20 nM	< 20 nM	Cc1ncsc1-c1ccc([C@H](C)NC(=O)[C@@H]2C[C@@H](O)CN2C(=O)[C@@H](NC(=O)CCCCCNC(=O)c2ccc(N3CCN(C[C@]4(C)CCC(c5ccc(Cl)cc5)=C(CN5CCN(c6ccc(C(=O)NS(=O)(=O)c7ccc(N[C@H](CCN8CCCOCC8)CSc8ccccc8)c(S(=O)(=O)C(F)(F)F)c7)cc6)CC5)C4)CC3)nn2)C(C)(C)C)cc1 [Compound 79]	
